Assay results taken from ChEMBL document CHEMBL6153155, “Novel Cyclohexyl Amido Acid Antagonists of Lysophosphatidic Acid Type 1 Receptor for the Treatment of Pulmonary Fibrosis” (ACS Med Chem Lett, 2025).
In brackets after ≈: the same amount, converted by molar mass.

Legend:
[1] = molecular target: T1, Solute carrier organic anion transporter family member 1B3 (Homo sapiens, UniProt Q9NPD5); test: Inhibition of human OATP1B3 in HEK293 cells; assay type: cell-based
T1 sequence (Q9NPD5 whole entry): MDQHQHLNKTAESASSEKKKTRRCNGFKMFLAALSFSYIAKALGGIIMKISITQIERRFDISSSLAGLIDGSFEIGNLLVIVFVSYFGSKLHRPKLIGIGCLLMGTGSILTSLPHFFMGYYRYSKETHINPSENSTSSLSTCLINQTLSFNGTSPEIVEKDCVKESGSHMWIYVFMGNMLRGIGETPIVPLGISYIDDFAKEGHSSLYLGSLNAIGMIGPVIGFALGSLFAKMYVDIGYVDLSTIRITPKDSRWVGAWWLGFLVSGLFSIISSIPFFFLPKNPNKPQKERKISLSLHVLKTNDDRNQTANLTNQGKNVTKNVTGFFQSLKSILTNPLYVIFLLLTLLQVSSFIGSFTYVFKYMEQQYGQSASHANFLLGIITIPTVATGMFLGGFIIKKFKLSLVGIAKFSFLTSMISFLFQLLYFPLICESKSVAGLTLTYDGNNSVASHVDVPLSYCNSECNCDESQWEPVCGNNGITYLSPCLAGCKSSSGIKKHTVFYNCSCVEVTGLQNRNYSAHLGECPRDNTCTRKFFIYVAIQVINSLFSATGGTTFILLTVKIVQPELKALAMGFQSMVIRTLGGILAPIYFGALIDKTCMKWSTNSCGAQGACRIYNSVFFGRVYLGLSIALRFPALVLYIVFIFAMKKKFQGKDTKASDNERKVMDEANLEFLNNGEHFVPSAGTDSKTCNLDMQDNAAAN

[2] = Toxicity in cynomolgus monkey assessed as abnormal vocalization at 210 mg/kg/day, po bid measured after 4 days; assay type: organism-based, Macaca fascicularis; settings: in vivo, 96 h, time 4 day
[3] = Toxicity in cynomolgus monkey assessed as partially closed eyelids at 210 mg/kg/day, po bid measured after 4 days; assay type: organism-based, Macaca fascicularis; settings: in vivo, 96 h, time 4 day
[4] = Toxicity in cynomolgus monkey assessed as abnormally cold to touch at 210 mg/kg/day, po bid measured after 4 days; assay type: organism-based, Macaca fascicularis; settings: in vivo, 96 h, time 4 day
[5] = molecular target: T2, Lysophosphatidic acid receptor 3 (Homo sapiens, UniProt Q9UBY5); test: Antagonist activity at human LPA3 expressed in human HeLa cells incubated for 30 mins by FLIPR-based calcium mobilization assay; assay type: functional, cell-based
T2 sequence (Q9UBY5 whole entry): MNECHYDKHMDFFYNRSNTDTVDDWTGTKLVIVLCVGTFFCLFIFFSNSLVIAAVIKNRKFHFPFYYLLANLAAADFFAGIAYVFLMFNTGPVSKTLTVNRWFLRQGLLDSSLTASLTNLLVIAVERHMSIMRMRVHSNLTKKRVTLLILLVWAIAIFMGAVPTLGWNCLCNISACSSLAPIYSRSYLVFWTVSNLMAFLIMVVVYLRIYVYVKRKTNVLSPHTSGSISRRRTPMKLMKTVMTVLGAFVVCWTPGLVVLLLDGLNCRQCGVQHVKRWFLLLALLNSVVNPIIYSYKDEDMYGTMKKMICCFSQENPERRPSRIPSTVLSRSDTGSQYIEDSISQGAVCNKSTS

[6] = molecular target: ATP-binding cassette sub-family C member 3 (Homo sapiens, UniProt O15438); test: Inhibition of MRP3 (unknown origin) in presence of ATP by membrane vesicular transport assay; assay type: cell membranes, Membrane vesicle
[7] = Volume of distribution at steady state in female C57BL/6J mouse at 2 mg/kg, iv measured after 24 hrs by UPLC-MS/MS analysis; assay type: ADME, organism-based; settings: in vivo, read-out: Vdss
[8] = test system: Mus musculus; test: Inhibition of LPA-stimulated histamine release in male CD1 mouse plasma assessed as effective dose administered as po dose pretreated for 30 mins followed by LPA addition measured after 2 mins by enzyme immunoassay; assay type: functional; settings: 32 min
[9] = Drug uptake in mouse lung at 30 mg/kg, po measured upto 24 hrs; assay type: ADME, organism-based; settings: in vivo
[10] = Unbound AUClast in female C57BL/6J mouse plasma at 30 mg/kg, po measured after 24 hrs by UPLC-MS/MS analysis; assay type: ADME, organism-based; settings: in vivo
[11] = Metabolic stability in human liver microsomes assessed as intrinsic clearance measured per mg of protein at 0.5 uM measured upto 45 mins in presence of NADPH regenerating system by HPLC-MS/MS analysis; assay type: ADME, Microsome; settings: read-out: CLH
[12] = molecular target: Phosphatidylcholine translocator ABCB4 (Homo sapiens, UniProt P21439); test: Inhibition of MDR3 in human hepatocytes in the presence of TCA incubated for 3 hrs by LC-MS/MS; assay type: cell-based, Hepatocyte
[13] = Aqueous solubility of the compound at pH 7.4; assay type: physicochemical; settings: buffer
[14] = Oral bioavailability in female C57BL/6J mouse at 2 mg/kg, iv measured after 24 hrs by UPLC-MS/MS analysis; assay type: ADME, organism-based; settings: in vivo
[15] = molecular target: Lysophosphatidic acid receptor 4 (Homo sapiens, UniProt Q99677); test: Antagonist activity at human LPA4 expressed in CHO cells in presence of IBMX pretreated for 30 mins followed by LPA addition and measured after 1 hrs by cAMP accumulation assay; assay type: functional, cell-based
[16] = Unbound AUClast in female C57BL/6J mouse lung at 30 mg/kg, po measured after 24 hrs by UPLC-MS/MS analysis; assay type: ADME, organism-based; settings: in vivo
[17] = Total AUClast in female C57BL/6J mouse plasma at 30 mg/kg, po measured after 24 hrs by UPLC-MS/MS analysis; assay type: ADME, organism-based; settings: in vivo
[18] = Clearance in female C57BL/6J mouse at 2 mg/kg, iv measured after 24 hrs by UPLC-MS/MS analysis; assay type: ADME, organism-based; settings: in vivo
[19] = molecular target: BSEP (Homo sapiens, UniProt O95342); test: Inhibition of BSEP in cryopreserved sandwich-cultured human hepatocytes by measuring reduction in TCA biliary clearance using taurocholic acid as substrate at 50 uM relative to control; assay type: cell-based, Hepatocyte; settings: cryopreserved sandwich-cultured hepatocytes, probe taurocholic acid
[20] = Total Cmax in female C57BL/6J mouse lung at 30 mg/kg, po measured after 24 hrs by UPLC-MS/MS analysis; assay type: ADME, organism-based
[21] = Half life in female C57BL/6J mouse at 2 mg/kg, iv measured after 24 hrs by UPLC-MS/MS analysis; assay type: ADME, organism-based; settings: in vivo
[22] = molecular target: ATP-binding cassette sub-family C member 2 (Homo sapiens, UniProt Q92887); test: Inhibition of MRP2 (unknown origin) in presence of ATP by membrane vesicular transport assay; assay type: cell membranes, Membrane vesicle
[23] = Total AUClast in female C57BL/6J mouse lung at 30 mg/kg, po measured after 24 hrs by UPLC-MS/MS analysis; assay type: ADME, organism-based; settings: in vivo
[24] = Toxicity in cynomolgus monkey assessed as decreased activity at 210 mg/kg/day, po bid measured after 4 days; assay type: organism-based, Macaca fascicularis; settings: in vivo, 96 h, time 4 day
[25] = Total Cmax in female C57BL/6J mouse plasma at 30 mg/kg, po measured after 24 hrs by UPLC-MS/MS analysis; assay type: ADME, organism-based
[26] = Toxicity in cynomolgus monkey assessed as piloerection at 210 mg/kg/day, po bid measured after 4 days; assay type: organism-based, Macaca fascicularis; settings: in vivo, 96 h, time 4 day
[27] = molecular target: Bile salt export pump (Homo sapiens, UniProt O95342); test: Inhibition of BSEP in cryopreserved sandwich-cultured human hepatocytes by measuring reduction in TCA biliary clearance using taurocholic acid as substrate; assay type: cell-based, Hepatocyte
Chain of Bile salt export pump (O95342 whole entry): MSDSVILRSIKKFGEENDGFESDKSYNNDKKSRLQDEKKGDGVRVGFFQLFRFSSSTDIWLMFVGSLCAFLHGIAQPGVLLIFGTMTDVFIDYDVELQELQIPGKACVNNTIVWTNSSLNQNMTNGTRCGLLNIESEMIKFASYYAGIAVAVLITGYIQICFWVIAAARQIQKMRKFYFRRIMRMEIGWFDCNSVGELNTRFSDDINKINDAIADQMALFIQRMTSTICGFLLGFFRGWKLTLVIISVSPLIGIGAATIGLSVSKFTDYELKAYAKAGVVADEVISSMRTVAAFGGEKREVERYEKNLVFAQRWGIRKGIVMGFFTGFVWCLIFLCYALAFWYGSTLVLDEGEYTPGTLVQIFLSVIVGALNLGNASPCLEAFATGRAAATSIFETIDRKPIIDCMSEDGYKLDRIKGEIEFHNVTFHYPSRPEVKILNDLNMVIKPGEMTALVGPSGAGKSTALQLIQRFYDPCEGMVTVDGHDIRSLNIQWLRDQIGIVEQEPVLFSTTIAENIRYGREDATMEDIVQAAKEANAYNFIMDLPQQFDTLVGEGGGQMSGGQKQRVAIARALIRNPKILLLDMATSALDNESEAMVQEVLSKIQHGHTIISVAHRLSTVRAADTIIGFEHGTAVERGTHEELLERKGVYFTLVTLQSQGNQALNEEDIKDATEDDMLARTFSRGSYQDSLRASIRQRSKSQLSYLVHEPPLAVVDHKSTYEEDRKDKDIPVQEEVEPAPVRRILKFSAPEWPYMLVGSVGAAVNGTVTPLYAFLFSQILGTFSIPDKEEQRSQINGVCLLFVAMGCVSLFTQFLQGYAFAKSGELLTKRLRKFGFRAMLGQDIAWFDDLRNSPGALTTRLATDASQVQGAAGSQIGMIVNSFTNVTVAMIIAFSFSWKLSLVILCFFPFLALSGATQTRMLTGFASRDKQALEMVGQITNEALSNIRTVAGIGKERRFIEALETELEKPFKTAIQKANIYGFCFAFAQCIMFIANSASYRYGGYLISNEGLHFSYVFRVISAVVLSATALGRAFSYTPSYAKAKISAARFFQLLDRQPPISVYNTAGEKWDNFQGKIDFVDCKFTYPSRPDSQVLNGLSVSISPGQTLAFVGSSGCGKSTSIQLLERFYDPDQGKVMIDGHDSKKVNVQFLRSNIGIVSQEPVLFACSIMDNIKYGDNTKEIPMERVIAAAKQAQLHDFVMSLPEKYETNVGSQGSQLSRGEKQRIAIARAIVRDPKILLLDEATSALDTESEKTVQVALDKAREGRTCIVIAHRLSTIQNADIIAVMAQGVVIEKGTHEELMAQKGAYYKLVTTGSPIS

Chain of Phosphatidylcholine translocator ABCB4 (P21439 whole entry): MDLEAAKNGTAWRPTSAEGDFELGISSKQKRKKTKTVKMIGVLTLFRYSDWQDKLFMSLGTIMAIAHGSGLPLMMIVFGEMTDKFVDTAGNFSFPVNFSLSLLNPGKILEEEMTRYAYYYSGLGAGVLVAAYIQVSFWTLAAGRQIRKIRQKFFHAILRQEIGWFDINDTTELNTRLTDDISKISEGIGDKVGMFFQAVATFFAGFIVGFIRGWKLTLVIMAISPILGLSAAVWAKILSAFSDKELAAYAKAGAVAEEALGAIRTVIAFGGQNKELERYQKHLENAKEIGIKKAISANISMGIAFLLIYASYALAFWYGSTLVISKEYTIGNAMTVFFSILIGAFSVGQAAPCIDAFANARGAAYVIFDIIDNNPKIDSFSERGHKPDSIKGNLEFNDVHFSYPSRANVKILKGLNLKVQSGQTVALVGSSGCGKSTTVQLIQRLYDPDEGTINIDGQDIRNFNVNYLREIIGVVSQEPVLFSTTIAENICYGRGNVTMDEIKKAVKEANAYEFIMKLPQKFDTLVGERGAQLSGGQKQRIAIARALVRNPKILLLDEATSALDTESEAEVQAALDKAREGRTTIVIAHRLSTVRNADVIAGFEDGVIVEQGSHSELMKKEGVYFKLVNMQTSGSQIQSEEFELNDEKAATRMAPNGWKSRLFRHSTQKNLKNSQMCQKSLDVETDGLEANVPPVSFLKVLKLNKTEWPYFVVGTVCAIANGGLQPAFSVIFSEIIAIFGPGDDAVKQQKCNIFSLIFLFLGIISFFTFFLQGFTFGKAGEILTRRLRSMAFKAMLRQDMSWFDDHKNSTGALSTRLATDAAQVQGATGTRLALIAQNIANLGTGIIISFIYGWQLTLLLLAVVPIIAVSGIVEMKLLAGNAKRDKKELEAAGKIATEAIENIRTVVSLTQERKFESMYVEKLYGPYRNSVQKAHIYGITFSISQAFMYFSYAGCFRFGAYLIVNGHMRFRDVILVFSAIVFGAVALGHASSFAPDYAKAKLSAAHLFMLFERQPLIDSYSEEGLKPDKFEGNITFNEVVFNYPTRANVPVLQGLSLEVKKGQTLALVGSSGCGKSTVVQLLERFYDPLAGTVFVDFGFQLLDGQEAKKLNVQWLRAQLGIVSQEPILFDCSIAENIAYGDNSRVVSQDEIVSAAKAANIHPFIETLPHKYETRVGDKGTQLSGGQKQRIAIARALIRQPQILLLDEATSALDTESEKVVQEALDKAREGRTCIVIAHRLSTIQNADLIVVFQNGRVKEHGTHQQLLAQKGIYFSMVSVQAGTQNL
Chain of Lysophosphatidic acid receptor 4 (Q99677 whole entry): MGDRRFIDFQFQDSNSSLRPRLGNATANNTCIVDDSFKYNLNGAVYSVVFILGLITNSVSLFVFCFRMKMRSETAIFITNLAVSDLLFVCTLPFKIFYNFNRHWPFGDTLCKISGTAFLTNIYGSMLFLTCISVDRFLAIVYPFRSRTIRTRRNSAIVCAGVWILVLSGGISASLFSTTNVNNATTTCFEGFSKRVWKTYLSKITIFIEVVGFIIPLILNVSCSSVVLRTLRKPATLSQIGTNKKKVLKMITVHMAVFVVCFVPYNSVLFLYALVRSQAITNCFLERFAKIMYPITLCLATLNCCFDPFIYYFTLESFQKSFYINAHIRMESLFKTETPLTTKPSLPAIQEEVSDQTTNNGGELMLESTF
Chain of ATP-binding cassette sub-family C member 2 (Q92887 whole entry): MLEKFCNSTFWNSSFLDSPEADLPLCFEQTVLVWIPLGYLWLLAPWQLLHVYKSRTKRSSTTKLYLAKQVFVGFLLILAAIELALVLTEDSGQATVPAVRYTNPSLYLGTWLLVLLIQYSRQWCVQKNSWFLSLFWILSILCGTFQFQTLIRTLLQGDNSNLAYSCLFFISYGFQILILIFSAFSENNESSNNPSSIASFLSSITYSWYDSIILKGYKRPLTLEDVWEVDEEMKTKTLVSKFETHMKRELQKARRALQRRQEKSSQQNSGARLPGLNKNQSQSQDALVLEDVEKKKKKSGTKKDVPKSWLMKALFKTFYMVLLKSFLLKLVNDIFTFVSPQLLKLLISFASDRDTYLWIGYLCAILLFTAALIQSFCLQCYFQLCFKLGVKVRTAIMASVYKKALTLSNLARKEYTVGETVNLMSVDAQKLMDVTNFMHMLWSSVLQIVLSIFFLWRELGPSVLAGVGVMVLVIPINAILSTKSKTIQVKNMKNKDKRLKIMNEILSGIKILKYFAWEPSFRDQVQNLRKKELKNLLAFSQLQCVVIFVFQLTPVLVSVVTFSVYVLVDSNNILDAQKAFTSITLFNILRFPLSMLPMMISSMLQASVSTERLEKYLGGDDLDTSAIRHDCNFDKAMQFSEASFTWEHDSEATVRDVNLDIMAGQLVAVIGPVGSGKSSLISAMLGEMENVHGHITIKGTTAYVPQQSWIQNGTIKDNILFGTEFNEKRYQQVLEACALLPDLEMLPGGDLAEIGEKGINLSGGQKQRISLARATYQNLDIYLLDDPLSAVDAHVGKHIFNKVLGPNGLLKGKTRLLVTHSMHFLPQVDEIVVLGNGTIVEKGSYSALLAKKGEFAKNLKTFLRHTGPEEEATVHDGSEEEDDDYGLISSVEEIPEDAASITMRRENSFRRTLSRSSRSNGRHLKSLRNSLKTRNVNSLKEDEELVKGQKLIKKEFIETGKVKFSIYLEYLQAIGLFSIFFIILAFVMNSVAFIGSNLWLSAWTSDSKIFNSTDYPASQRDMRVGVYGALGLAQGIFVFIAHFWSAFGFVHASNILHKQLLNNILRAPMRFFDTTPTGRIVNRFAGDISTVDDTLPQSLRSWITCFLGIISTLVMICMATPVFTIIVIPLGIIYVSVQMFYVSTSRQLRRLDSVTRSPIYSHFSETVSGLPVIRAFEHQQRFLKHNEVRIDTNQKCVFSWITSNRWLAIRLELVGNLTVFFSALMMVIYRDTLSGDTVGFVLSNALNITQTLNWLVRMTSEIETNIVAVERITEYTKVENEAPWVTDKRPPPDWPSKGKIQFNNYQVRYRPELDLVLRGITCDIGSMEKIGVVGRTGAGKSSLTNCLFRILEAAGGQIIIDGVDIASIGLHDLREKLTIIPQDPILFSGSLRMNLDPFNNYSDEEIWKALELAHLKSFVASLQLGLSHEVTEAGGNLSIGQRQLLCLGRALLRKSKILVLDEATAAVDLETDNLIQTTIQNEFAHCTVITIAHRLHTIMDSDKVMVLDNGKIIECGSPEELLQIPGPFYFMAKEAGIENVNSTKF
Chain of BSEP (O95342 whole entry): as the sequence (O95342 whole entry) above

Which IC50 [1] does the source give for `Cc1nc(-c2onc(C)c2NC(=O)O[C@H](C)c2ccccc2Cl)ccc1NC(=O)[C@H]1CCCC[C@@H]1C(=O)O` here?
Its IC50 is 7.94 µM.

What about the Activity [2] of the same compound?
The Activity was “Toxic”.

And the Activity [3]?
Its Activity is “Toxic”.

What about the Activity [4] of the same compound?
Its Activity is “Toxic”.

What about the IC50 [5] of the same compound?
The IC50 was 37.2 µM.

And the IC50 [6]?
The IC50 was 25.1 µM.

And the Vd [7]?
The Vd was 0.16 L/kg.

And the ED50 [8]?
The ED50 was 0.04 mg/kg.

What about the Drug uptake [9] of the same compound?
The Drug uptake was “Active”.

What about the fAUClast [10] of the same compound?
The fAUClast was 3675 h/ng/mL.

What about the microsomal CLint at 0.5 µM [11] of the same compound?
Its microsomal CLint at 0.5 µM is 7 µL/min/mg.

And the IC50 [12]?
Its IC50 is 251 µM.

What about the solubility [13] of the same compound?
The solubility was 505 µM (≈ 273 µg/mL).

What about the bioavailability [14] of the same compound?
The bioavailability was 100%.

What about the IC50 [15] of the same compound?
The IC50 was 12.6 µM.

And the fAUClast [16]?
The fAUClast was 4624 h/ng/mL.

And the AUClast [17]?
The AUClast was 247000 h/ng/mL.

And the clearance [18]?
Its clearance is 1.73 mL/min/kg.

What about the inhibition at 50 µM [19] of the same compound?
The inhibition at 50 µM was 50%.

And the Cmax [20]?
Its Cmax is 41.3 µg/mL.

And the half-life [21]?
Its half-life is 1.84 h.

What about the IC50 [22] of the same compound?
Its IC50 is > 200 µM.

What about the AUClast [23] of the same compound?
Its AUClast is 123000 h/ng/mL.

What about the Activity [24] of the same compound?
Its Activity is “Toxic”.

And the Cmax [25]?
Its Cmax is 99.4 µg/mL.

What about the Activity [26] of the same compound?
The Activity was “Toxic”.

And the IC50 [27]?
The IC50 was 39.8 µM.
